The text below walks through data of publication PMC12487887, “Global conformations of Pichia pastoris complex I are distinguished by the binding of a unique interdomain bridging subunit” (Science Advances, 2025).

Experiment [1] addresses T1, Pp-CI (flavin site; NDUFV1) (Komagataella pastoris, UniProt E1UWA7).
T1 construct: gene nubm; native mitochondrial complex I, 44 subunits, purified in LMNG, in cMSP26 nanodiscs or proteoliposomes; with NADH-ubiquinone oxidoreductase 24 kDa subunit, mitochondrial; NADH-ubiquinone oxidoreductase 75 kDa subunit, mitochondrial
T1 sequence (E1UWA7 17-473): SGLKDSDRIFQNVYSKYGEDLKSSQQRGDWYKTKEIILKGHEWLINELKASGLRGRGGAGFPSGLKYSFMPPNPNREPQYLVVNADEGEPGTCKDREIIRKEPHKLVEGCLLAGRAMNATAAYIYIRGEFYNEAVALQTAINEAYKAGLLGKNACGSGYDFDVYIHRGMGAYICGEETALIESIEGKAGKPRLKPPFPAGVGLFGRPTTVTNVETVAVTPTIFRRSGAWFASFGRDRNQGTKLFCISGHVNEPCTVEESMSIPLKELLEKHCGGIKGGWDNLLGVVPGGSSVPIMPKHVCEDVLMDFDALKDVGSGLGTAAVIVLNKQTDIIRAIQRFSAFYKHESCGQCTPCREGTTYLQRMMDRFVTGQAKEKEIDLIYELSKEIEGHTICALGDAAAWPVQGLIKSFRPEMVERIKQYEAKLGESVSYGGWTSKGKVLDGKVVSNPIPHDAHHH
Description: cryo-EM structure. The class given is binding. The settings on record: state 1, closed, 2.8 Å.

For experiment [2], the target named is T1, Pp-CI (flavin site; NDUFV1). Description: NADH:APAD+ oxidoreduction in proteoliposomes. It is filed as biochemical. The settings on record: 500 μM APAD+, 100 μM NADH; pH 7.5, 32°C.
Experiment [3] addresses T2, Pp-CI (Q10-binding site) (Komagataella pastoris, UniProt E1UWA8+E1UWB5+E1UWC2).
T2 construct: gene nucm; native mitochondrial complex I, 44 subunits, purified in LMNG, in cMSP26 nanodiscs or proteoliposomes; with NADH-ubiquinone oxidoreductase 51 kDa subunit, mitochondrial; NADH-ubiquinone oxidoreductase 24 kDa subunit, mitochondrial
Description: NADH:O2 oxidoreduction with AOX, nanodiscs. The class given is biochemical. The conditions noted are these: 200 μM NADH; Q10 in bilayer; pH 7.5, 32°C.

The target of experiment [4] is T3, NDUFA9 subunit of Pp-CI (Komagataella pastoris, UniProt E1UWA9).
T3 construct: gene nuem; supernumerary subunit within native 44-subunit mitochondrial complex I in cMSP26 nanodiscs
T3 sequence (E1UWA9 36-384): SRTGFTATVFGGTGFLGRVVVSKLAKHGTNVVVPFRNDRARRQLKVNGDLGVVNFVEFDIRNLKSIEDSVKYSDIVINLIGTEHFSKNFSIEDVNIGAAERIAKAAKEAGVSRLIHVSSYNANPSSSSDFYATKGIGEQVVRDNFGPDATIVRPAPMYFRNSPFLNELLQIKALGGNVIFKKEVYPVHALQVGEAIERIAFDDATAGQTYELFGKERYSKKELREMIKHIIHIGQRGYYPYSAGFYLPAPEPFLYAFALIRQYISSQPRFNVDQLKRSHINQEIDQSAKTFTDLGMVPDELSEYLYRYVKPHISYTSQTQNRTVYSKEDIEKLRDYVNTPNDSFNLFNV
Description: cryo-EM structure. The class given is binding. The settings on record: state 1, closed, 2.8 Å.

For experiment [5], the target named is T1, Pp-CI (flavin site; NDUFV1). Description: NADH:APAD+ and NADH:O2 oxidoreduction, absorbance […]-380 nm. It is filed as biochemical. The conditions noted are these: 100 μM NADH with 500 μM APAD+ or 200 μM NADH with Q10/AOX; pH 7.5, 32°C.
Experiment [6] concerns the target Pichia pastoris complex I (NADH:ubiquinone oxidoreductase), the 43 subunits other than NUQM, with the flavoprotein subcomplex (Pichia pastoris (endogenous in strain X-33)). Description: cryo-EM structure; Pp-CI reconstituted into proteoliposomes (Pp-CI-PLs), 10 mM Mops pH 7.5, 50 mM KCl; Talos Arctica 200 kV; focused 3D classification on NUQM and on the flavoprotein; NUQM-bound map 4.7 A.

Experiment [7] has the same target. Description: cryo-EM structure; Pp-CI purified in LMNG and reconstituted into cMSP26 nanodiscs with DOPC:DOPE:CDL and Q10, 10 mM Mops pH 7.5, 50 mM KCl; Titan Krios 300 kV; particles classified into four states (state 1 closed with NUQM 2.80 A; state 3 open without NUQM 3.34 A).

In the case of `Cc1cc2nc3c(=O)[nH]c(=O)nc-3n(C[C@H](O)[C@H](O)[C@H](O)COP(=O)(O)O)c2cc1C` [FMN], the cryo-EM structure entry in experiment [1] was “canonical CI subunits that contain the FMN in the active site for NADH oxidation”.
With `CC(=O)c1ccc[n+]([C@@H]2O[C@H](COP(=O)(O)OP(=O)(O)OC[C@H]3O[C@@H](n4cnc5c(N)ncnc54)[C@H](O)[C@@H]3O)[C@@H](O)[C@H]2O)c1` [APAD^+], in experiment [2], the “NADH:APAD+ oxidoreduction in proteoliposomes” value was “the consistent rates of the flavin-localized NADH:APAD^+ reaction”.
Take `COC1=C(OC)C(=O)C(C/C=C(\C)CC/C=C(\C)CC/C=C(\C)CC/C=C(\C)CC/C=C(\C)CC/C=C(\C)CC/C=C(\C)CC/C=C(\C)CC/C=C(\C)CCC=C(C)C)=C(C)C1=O` [Q10]: the “NADH:O2 oxidoreduction with AOX, nanodiscs” value in experiment [3] is “confirming the rapid redox-cycling turnover of the Q10 contained in the ND bilayer”.
Regarding `NC(=O)C1=CN([C@@H]2O[C@H](COP(=O)(O)OP(=O)(O)OC[C@H]3O[C@@H](n4cnc5c(N)ncnc54)[C@H](OP(=O)(O)O)[C@@H]3O)[C@@H](O)[C@H]2O)C=CC1` [NADPH], the cryo-EM structure entry in experiment [4] is “bound in NDUFA9”.
Consider `NC(=O)C1=CN([C@@H]2O[C@H](COP(=O)(O)OP(=O)(O)OC[C@H]3O[C@@H](n4cnc5c(N)ncnc54)[C@H](O)[C@@H]3O)[C@@H](O)[C@H]2O)C=CC1` [NADH], for which the “NADH:APAD+ and NADH:O2 oxidoreduction, absorbance 340-380 nm” value in experiment [5] was “the consistent rates of the flavin-localized NADH:APAD^+ reaction”.

B1: NUQM, supernumerary interdomain bridge subunit of Pichia pastoris complex I (natural protein)
chain: ALATIRNDLKLNFRFKADVLEKNVIRSILAETKNLEIDNKDKDLDEFKLYDLLSKMIKQRQDSAAIYLKEGSPDRFRQTGWNELREVDYITKYLEALPVASAEEIEAKVEPIVQSVLEEEGELKSPKEIFSRIPWKVVNQDWQASEGAVKNTVLRLYNLYKTDA
The molecule B1 gave a percent of outward-facing, flavoprotein-bound particles with NUQM bound in experiment [6] of 77%. The percent of flavoprotein-containing particles with NUQM bound in experiment [7] stood at 68.1%.
